Measured values published in patent US20080206219A1, “Novel Indications for Transforming Growth Factor-Beta Regulators” (THE REGENCTS OF THE UNIVERSITY OF CALIFORNIA, priority 2003, published 2008).

B1: VEGFA164: VEGF164 (Chemicon), agent known to induce vascular leakage via VEGFR2 (protein)
chain: APTTEGEQKSHEVIKFMDVYQRSYCRPIETLVDIFQEYPDEIEYIFKPSCVPLMRCAGCCNDEALECVPTSESNITMQIMRIKPHQSQHIGEMSFLQHSRCECRPKKDRTKPENHCEPCSERRKHLFVQDPQTCKCSCKNTDSRCKARQLELNERTCRCDKPRR

Assays:
Type in all cases: in vivo
[1] = test system: Collα1(I)+/+ and Collα1(I)r/r mice; assay: Miles assay: Evans blue leakage in ears after mustard oil challenge; conditions: for Evans blue staining of ears following MO exposure: 5% mustard oil in mineral oil
Method: Evans blue (EB) dye (30 mg/kg in 100 μl PBS; Sigma-Aldrich) was injected into the tail vein of 7- to 8-week-old mice. In some experiments, after 1-min, 30 μl of 5% mustard oil (Phenyl Isothiocyanate, 98%, Sigma-Aldrich) diluted in mineral oil (Sigma-Aldrich) was applied to the dorsal and ventral surfaces of the ear; the application process was repeated 15 minutes later. Isoflurane anesthesized mice were photographed 30 minutes after injection of EB dye. Anesthesized mice were then cardiac perfused, ears removed, blotted dry and weighed. EB dye was extracted from ears in 1 ml of formamide overnight to 48-hrs at 60° C. and measured spectrophotometrically at 610 nm in a SpectraMax 340™ (Molecular Devices). Data are expressed as mean±SEM. Comparisons of the amounts of dye extravasation were evaluated by Mann-Whitney statistical test with p values less than 0.05 considered significant. In some experiments, 5-min prior to the infusion of EB dye, shaved 5-to 7-week old mice were injected (10 μl) intradermally with one of the following agents at the concentrations shown (VEGF120, R&D Systems; VEGF164, Chemicon; histamine, Calbiochem; serotonin, Sigma-Aldrich) and the appearance of a blue spot monitored for 30 minutes at which time mice were euthanized, cardiac perfused, photographed and the area of skin surrounding the site of injection excised (˜5 mm^2), photographed and EB dye extracted as above. […]
The vascular physiology in a mouse model of human Sc, e.g., Collα1(I)^r/r mice, was studied to determine whether an altered balance between collagen synthesis, accumulation and/or degradation was a rate-limiting factor for efficient vascular physiology prior to histopathologic appearance of Sc disease. The ears of Collα1(I)^r/r versus littermate control (Collα1(I)^+/+) mice were treated with vehicle alone (mineral oil; FIG. 1A) or mustard oil (MO; 5% in mineral oil: right ear), an inflammatory agent that induces plasma leakage, vasodilation of capillaries and inflammation in the skin (FIG. 1A). Evans blue dye (30 mg/kg in 100 μl PBS; Sigma Chemical Co., St. Louis, Mo., USA) was injected into the tail vein of the mice. After 1 minute, 5% mustard oil (Phenyl Isothiocyanate, 98%, Sigma) diluted in mineral oil (Sigma) was applied to the dorsal and ventral surfaces of the ear with a cotton swab; the application process was repeated 15 minutes later. […] Isoflurane anesthesized mice were photographed 30 minutes after injection of Evans blue dye. Anesthesized mice were then cardiac perfused, ears removed, blotted dry, and weighed. The Evans blue dye was extracted from the ears with 1 ml of formamide overnight at 60° C. and measured spectrophotometrically at 610 nm in a SpectraMax 340™ (Molecular Devices). Data are expressed as mean±SEM. Comparisons of the amounts of dye extravasation were evaluated by the Fisher's t test with p values less than 0.05 considered significant.
Vascular permeability (VP) responses in control and Collα1(I)^r/r mice treated with a broad spectrum synthetic metalloproteinase inhibitor (MPI), e.g., GM6001 were examined. GM6001 (N-[(2R)-2(hydroxyamidocarbonylmethyl)-4-methylpantanoyl]-L-tryptophan ethylamide), a broad, class-specific metalloproteinase inhibitor (Chemicon, Temecula Calif.), was administered daily i.p. at 100 mg/kg body weight as a 20 mg/ml slurry in 4% carboxymethylcellulose in 0.9% PBS daily for 3-days. Controls were treated with a daily injection of 4% carboxymethylcellulose in PBS. The animals were then subject to cutaneous challenge with MO and qualitative and quantitative assessment of Evans blue dye leakage into vascular stroma (FIG. 5A).

[2] = test system: control and Collα1(I)r/r mice; assay: Fluorescent angiography of whole mounted ears after mustard oil
[3] = test system: control and Collα1(I)r/r mice; assay: Modified Miles assay: intradermal injection of permeability-inducing agents; conditions: for Evans blue leakage response after intradermal injection: Collα1(I)r/r mice versus control mice, all concentrations tested; for leakage of Evans blue dye into stroma after intradermal injection: control mice, increasing concentrations
Method: Evans blue (EB) dye (30 mg/kg in 100 μl PBS; Sigma-Aldrich) was injected into the tail vein of 7- to 8-week-old mice. In some experiments, after 1-min, 30 μl of 5% mustard oil (Phenyl Isothiocyanate, 98%, Sigma-Aldrich) diluted in mineral oil (Sigma-Aldrich) was applied to the dorsal and ventral surfaces of the ear; the application process was repeated 15 minutes later. Isoflurane anesthesized mice were photographed 30 minutes after injection of EB dye. Anesthesized mice were then cardiac perfused, ears removed, blotted dry and weighed. EB dye was extracted from ears in 1 ml of formamide overnight to 48-hrs at 60° C. and measured spectrophotometrically at 610 nm in a SpectraMax 340™ (Molecular Devices). Data are expressed as mean±SEM. Comparisons of the amounts of dye extravasation were evaluated by Mann-Whitney statistical test with p values less than 0.05 considered significant. In some experiments, 5-min prior to the infusion of EB dye, shaved 5-to 7-week old mice were injected (10 μl) intradermally with one of the following agents at the concentrations shown (VEGF120, R&D Systems; VEGF164, Chemicon; histamine, Calbiochem; serotonin, Sigma-Aldrich) and the appearance of a blue spot monitored for 30 minutes at which time mice were euthanized, cardiac perfused, photographed and the area of skin surrounding the site of injection excised (˜5 mm^2), photographed and EB dye extracted as above.
The vascular leakage in control and Collα1(I)^r/r mice following intradermal injection of other agents known to induce vascular leakage, e.g., VEGFA120, VEGFA164 and serotonin (versus vehicle alone), by interacting with distinct cell surface receptors, e.g., VEGF receptor-2 (VEGFR2) and serotonin receptors, respectively (FIG. 3A) were assessed. 5 min prior to the infusion of Evans blue dye, shaved 5-to 7-week old mice were injected (10 μl) intradermally with VEGF120 (R&D Systems) VEGF164 (Chemicon; histamine, Calbiochem) serotonin (Sigma) TIMP-1 (Oncogene Research Products, San Diego Calif.) and the appearance of a blue spot monitored for 30 minutes at which time mice were euthanized, cardiac perfused, photographed and the area of skin surrounding the site of injection excised (˜5 mm^2), photographed and Evans blue dye extracted as above.

VEGFR2 = target: T1, VEGFR2 (Mus musculus, UniProt P35918); assay: VEGFR2 phosphorylation, IP-western of tissue lysates after intradermal VEGF164; conditions: control and Collα1(I)r/r mice; VEGF164 10 ng i.d.
T1 construct: tissue lysates were subjected to immunoprecipitation with anti-VEGFR2 antibodies; from tissue; host or cells: mouse skin after intradermal VEGF164 or BSA
T1 sequence (P35918 20-1345): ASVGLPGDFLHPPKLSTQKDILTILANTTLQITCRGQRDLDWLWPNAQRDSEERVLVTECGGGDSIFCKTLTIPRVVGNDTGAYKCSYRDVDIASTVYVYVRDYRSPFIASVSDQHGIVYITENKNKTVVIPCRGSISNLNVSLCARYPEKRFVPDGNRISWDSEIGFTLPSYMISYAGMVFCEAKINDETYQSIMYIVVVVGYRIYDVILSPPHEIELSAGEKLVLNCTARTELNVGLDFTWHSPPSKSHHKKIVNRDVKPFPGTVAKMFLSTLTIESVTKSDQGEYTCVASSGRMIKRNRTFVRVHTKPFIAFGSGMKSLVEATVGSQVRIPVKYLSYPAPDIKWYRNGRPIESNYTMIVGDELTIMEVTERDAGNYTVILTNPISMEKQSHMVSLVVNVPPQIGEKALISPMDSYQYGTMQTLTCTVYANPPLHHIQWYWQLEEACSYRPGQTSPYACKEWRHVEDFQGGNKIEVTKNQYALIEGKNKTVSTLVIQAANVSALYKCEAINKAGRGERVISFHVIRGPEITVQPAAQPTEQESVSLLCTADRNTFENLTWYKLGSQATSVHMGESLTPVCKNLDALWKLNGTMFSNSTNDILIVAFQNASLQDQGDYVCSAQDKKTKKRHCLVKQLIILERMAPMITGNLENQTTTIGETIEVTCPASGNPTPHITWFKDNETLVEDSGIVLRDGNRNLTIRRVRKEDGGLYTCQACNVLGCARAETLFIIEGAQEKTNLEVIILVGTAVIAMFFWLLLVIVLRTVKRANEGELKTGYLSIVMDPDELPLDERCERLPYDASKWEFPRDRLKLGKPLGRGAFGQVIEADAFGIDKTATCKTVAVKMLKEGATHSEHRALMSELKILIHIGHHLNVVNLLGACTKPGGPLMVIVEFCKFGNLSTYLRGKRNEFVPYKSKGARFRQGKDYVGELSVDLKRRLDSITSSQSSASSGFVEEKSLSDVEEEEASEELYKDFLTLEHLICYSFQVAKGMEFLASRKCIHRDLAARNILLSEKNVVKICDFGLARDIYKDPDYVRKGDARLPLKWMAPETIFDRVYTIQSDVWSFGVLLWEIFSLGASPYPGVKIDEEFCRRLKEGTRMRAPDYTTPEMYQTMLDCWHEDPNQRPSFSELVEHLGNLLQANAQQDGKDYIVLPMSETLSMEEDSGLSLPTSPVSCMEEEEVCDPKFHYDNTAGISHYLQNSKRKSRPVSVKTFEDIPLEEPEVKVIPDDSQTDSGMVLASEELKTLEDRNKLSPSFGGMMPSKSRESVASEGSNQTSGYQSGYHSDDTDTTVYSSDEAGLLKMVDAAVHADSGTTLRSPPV
Method: VEGFR2: Tissue pieces (5 mm^2) from animals were collected from ears or following shaving of back skin or following injection (i.d.) of 10 μl 10 ng VEGF164 or 0.1% BSA in PBS. Tissues were pulverized in liquid N2 followed by lysis in ice-cold buffer containing 20 mM Tris, pH 7.6, 150 mM NaCl, 1 mM EDTA, 50 mM NaF, 1% triton X-100, 0.5% Na-deoxycholate, 0.1% SDS, 2 mM Na2VO4, 10 μg/ml aprotinin, 1 mM phenylmethylsulfonylfluoride and centrifuged at 10,000 rpm for 30-min at 4° C. The supernatants were recentrifuged at 10,000 rpm for 30-min at 4° C. Lysates were then incubated in a slurry of heparin-Sepharose CL-6B (Pharmacia) and incubated overnight rocking at 4C, centrifugation and equilibrated to 150 mM NaCl. Protein was dialyzed against PBS and quantified using the BioRad protein assay system (BioRad). Before immunoprecipitation, BSA was added to the pre-cleared lysates to 0.5%. Equal amounts of protein (1 mg) from lysates were used for immunopreciptations and Western blotting. […]
Following intradermal injection of VEGF164 (10 ng), tissue lysates were subjected to immunoprecipitation with anti-VEGFR2 antibodies, followed by SDS-PAGE electrophoreses of immune complexes and western blot analysis with anti phospho-tyrosine and anti-VEGFR2 antibodies (FIG. 3B). […] Protein was dialyzed against PBS and quantified using the BioRad protein assay system (BioRad, Hercules, Calif.). […]

| Molecule | amount of Evans blue leaked in response to MO, lower than in control animals ([1]; Collα1(I)r/r mice versus controls, p=0.0002) | Evans blue staining of ears following MO exposure ([1]; Collα1(I)r/r mice) | Evans blue staining of ears following MO exposure ([1]; littermate control mice) | total vascular area after MO versus vehicle ([2]; Collα1(I)r/r mice) | vasodilation of macrovasculature (vessel diameter) after MO ([2]; Collα1(I)r/r mice) | vasodilation of macrovasculature (vessel diameter) after MO ([2]; control mice) | total vascular area after MO versus vehicle ([2]; control mice, p<0.04) | Evans blue leakage response after intradermal injection [3] | leakage of Evans blue dye into stroma after intradermal injection [3] | phosphorylation of VEGFR2 following exposure to VEGF (VEGFR2) |
| --- | --- | --- | --- | --- | --- | --- | --- | --- | --- | --- |
| S=C=Nc1ccccc1 [MO, Phenyl Isothiocyanate] | ~50% | remained pale with only a modest hint of blue | moderately blue | unchanged | not observed | increased vasodilation of macrovasculature | significant increase in total vascular area |  |  |  |
| NCCc1c[nH]c2ccc(O)cc12 [serotonin] |  |  |  |  |  |  |  | significantly inhibited | significant leakage |  |
| B1 |  |  |  |  |  |  |  | significantly inhibited | significant leakage | similarly increased levels of phosphorylation |
